Assay results reported in ChEMBL document CHEMBL2203177, “Tuning the activity of a short arg-trp antimicrobial Peptide by lipidation of a C- or N-terminal lysine side-chain” (ACS Med Chem Lett, 2012).
Converted amounts (≈) assume the structure as drawn. Peptide text beside a SMILES is read from it. * marks the point of attachment. Myristoyl = CCCCCCCCCCCCCC(=O)*; Lauroyl = CCCCCCCCCCCC(=O)*; Decanoyl = CCCCCCCCCC(=O)*; Hexanoyl = CCCCCC(=O)*; Butyryl = CCCC(=O)*

Assays:
Escherichia coli = assay: Antibacterial activity against Escherichia coli DSM 30083 assessed as growth inhibition after 18 hrs; type: functional; settings: DSM 30083, 18 h
Acinetobacter baumannii = assay: Antibacterial activity against Acinetobacter baumannii DSM 30007 assessed as growth inhibition after 18 hrs; type: functional; settings: DSM 30007, 18 h
Bacillus subtilis [1] = assay: Antibacterial activity against Bacillus subtilis 168 DSM 402 assessed as growth inhibition after 18 hrs; type: functional; settings: subsp. subtilis str. 168 DSM 402, 18 h
Staphylococcus aureus [2] = assay: Antibacterial activity against Staphylococcus aureus ATCC 43300 assessed as growth inhibition after 18 hrs; type: functional; settings: ATCC 43300, 18 h
Staphylococcus aureus [3] = assay: Antibacterial activity against Staphylococcus aureus DSM 20231 assessed as growth inhibition after 18 hrs; type: functional; settings: DSM 20231, 18 h
Pseudomonas aeruginosa = assay: Antibacterial activity against Pseudomonas aeruginosa DSM 50071 assessed as growth inhibition after 18 hrs; type: functional; settings: DSM 50071, 18 h
[4] = Hemolytic activity against human RBC assessed as hemoglobin leakage at 250 ug/ml; type: ADME, cell-based, Erythrocyte; settings: human red blood cells, read-out: Activity
Bacillus subtilis [5] = assay: Bactericidal activity against Bacillus subtilis 168 (trpC2)2 assessed as survival rate at twice MIC concentration incubated for 15 mins measured after 18 hrs; type: functional, subsp. subtilis str. 168 (trpC2)2

| Structure (SMILES) | MIC (Escherichia coli) [µM] | MIC (Acinetobacter baumannii) [µM] | MIC (Bacillus subtilis [1]) [µM] | MIC (Staphylococcus aureus [2]) [µM] | MIC (Staphylococcus aureus [3]) [µM] | MIC (Pseudomonas aeruginosa) [µM] | hemolysis at 250 ug/ml [4] [%] | Survival (Bacillus subtilis [5]) [%] |
| --- | --- | --- | --- | --- | --- | --- | --- | --- |
| CCCC(=O)NCCCC[C@H](N)C(=O)N[C@@H](CCCNC(=N)N)C(=O)N[C@@H](Cc1c[nH]c2ccccc12)C(=O)N[C@@H](CCCNC(=N)N)C(=O)N[C@@H](Cc1c[nH]c2ccccc12)C(=O)N[C@@H](CCCNC(=N)N)C(=O)N[C@@H](Cc1c[nH]c2ccccc12)C(N)=O (H-K(Butyryl)RWRWRW-NH2) | 38 (≈ 47.2 µg/mL) | > 100 | 2 (≈ 2.49 µg/mL) | 19 (≈ 23.6 µg/mL) | 38 (≈ 47.2 µg/mL) | > 100 | < 10 | – |
| CCCCCCCCCCCCCC(=O)NCCCC[C@H](N)C(=O)N[C@@H](CCCNC(=N)N)C(=O)N[C@@H](Cc1c[nH]c2ccccc12)C(=O)N[C@@H](CCCNC(=N)N)C(=O)N[C@@H](Cc1c[nH]c2ccccc12)C(=O)N[C@@H](CCCNC(=N)N)C(=O)N[C@@H](Cc1c[nH]c2ccccc12)C(N)=O (H-K(Myristoyl)RWRWRW-NH2) | 35 (≈ 48.4 µg/mL) | 35 (≈ 48.4 µg/mL) | 9 (≈ 12.4 µg/mL) | 17 (≈ 23.5 µg/mL) | 9 (≈ 12.4 µg/mL) | > 100 | > 50 | 0.033 |
| CC(=O)NCCCC[C@H](NC(=O)[C@H](Cc1c[nH]c2ccccc12)NC(=O)[C@H](CCCNC(=N)N)NC(=O)[C@H](Cc1c[nH]c2ccccc12)NC(=O)[C@H](CCCNC(=N)N)NC(=O)[C@H](Cc1c[nH]c2ccccc12)NC(=O)[C@@H](N)CCCNC(=N)N)C(N)=O (H-RWRWRWK(Ac)-NH2) | > 100 | > 100 | 10 (≈ 12.1 µg/mL) | > 100 | > 100 | > 100 | < 10 | – |
| N=C(N)NCCC[C@H](NC(=O)[C@H](Cc1c[nH]c2ccccc12)NC(=O)[C@H](CCCNC(=N)N)NC(=O)[C@H](Cc1c[nH]c2ccccc12)NC(=O)[C@@H](N)CCCNC(=N)N)C(=O)N[C@@H](Cc1c[nH]c2ccccc12)C(N)=O (H-RWRWRW-NH2) | 21 (≈ 21.9 µg/mL) | 85 (≈ 88.8 µg/mL) | 3 (≈ 3.13 µg/mL) | 6 (≈ 6.27 µg/mL) | 11 (≈ 11.5 µg/mL) | > 100 | < 10 | 2.8 |
| CCCCCCCCCC(=O)NCCCC[C@H](NC(=O)[C@H](Cc1c[nH]c2ccccc12)NC(=O)[C@H](CCCNC(=N)N)NC(=O)[C@H](Cc1c[nH]c2ccccc12)NC(=O)[C@H](CCCNC(=N)N)NC(=O)[C@H](Cc1c[nH]c2ccccc12)NC(=O)[C@@H](N)CCCNC(=N)N)C(N)=O (H-RWRWRWK(Decanoyl)-NH2) | 2 (≈ 2.65 µg/mL) | 5 (≈ 6.63 µg/mL) | 0.6 (≈ 0.796 µg/mL) | 1 (≈ 1.33 µg/mL) | 1 (≈ 1.33 µg/mL) | 9 (≈ 11.9 µg/mL) | 50 | 0.053 |
| CCCC(=O)NCCCC[C@H](NC(=O)[C@H](Cc1c[nH]c2ccccc12)NC(=O)[C@H](CCCNC(=N)N)NC(=O)[C@H](Cc1c[nH]c2ccccc12)NC(=O)[C@H](CCCNC(=N)N)NC(=O)[C@H](Cc1c[nH]c2ccccc12)NC(=O)[C@@H](N)CCCNC(=N)N)C(N)=O (H-RWRWRWK(Butyryl)-NH2) | 38 (≈ 47.2 µg/mL) | > 100 | 5 (≈ 6.21 µg/mL) | 38 (≈ 47.2 µg/mL) | > 100 | > 100 | < 10 | – |
| CCCCCC(=O)NCCCC[C@H](N)C(=O)N[C@@H](CCCNC(=N)N)C(=O)N[C@@H](Cc1c[nH]c2ccccc12)C(=O)N[C@@H](CCCNC(=N)N)C(=O)N[C@@H](Cc1c[nH]c2ccccc12)C(=O)N[C@@H](CCCNC(=N)N)C(=O)N[C@@H](Cc1c[nH]c2ccccc12)C(N)=O (H-K(Hexanoyl)RWRWRW-NH2) | 9 (≈ 11.4 µg/mL) | 9 (≈ 11.4 µg/mL) | 0.6 (≈ 0.762 µg/mL) | 5 (≈ 6.35 µg/mL) | 5 (≈ 6.35 µg/mL) | 37 (≈ 47 µg/mL) | < 10 | 0.211 |
| CCCCCCCCCCCC(=O)NCCCC[C@H](NC(=O)[C@H](Cc1c[nH]c2ccccc12)NC(=O)[C@H](CCCNC(=N)N)NC(=O)[C@H](Cc1c[nH]c2ccccc12)NC(=O)[C@H](CCCNC(=N)N)NC(=O)[C@H](Cc1c[nH]c2ccccc12)NC(=O)[C@@H](N)CCCNC(=N)N)C(N)=O (H-RWRWRWK(Lauroyl)-NH2) | 4 (≈ 5.42 µg/mL) | 9 (≈ 12.2 µg/mL) | 1 (≈ 1.35 µg/mL) | 1 (≈ 1.35 µg/mL) | 1 (≈ 1.35 µg/mL) | 18 (≈ 24.4 µg/mL) | > 50 | 0.004 |
